Experimental data from patent US20240026262A1, “METHODS AND DEVICES FOR EX-UTERO MOUSE EMBRYONIC DEVELOPMENT” (Yeda Research and Development Co. Ltd., priority 2021, published 2024).
“Also recorded” adds a separate entry of the source.

How the values were obtained:
[1] = tested on: neural tube closure in mouse embryos; experiment: Teratogenic experiments in mouse embryos cultured ex utero since E7.5; settings: 1 mM in culture media from E8.5 to E9.5, n=6
Method: E7.5 embryo dissection and ex utero culture—Mouse embryos were obtained from non-hormone primed pregnant mice sacrificed by cervical dislocation at E7.5. Subsequently, embryos were dissected out from the uterus in dissection medium pre-equilibrated at 37° C. for 1 hour, consisting of DMEM (GIBCO 11880; includes already 1 mg/mL D-glucose and pyruvate, without phenol red and without L-glutamine) supplemented with 10% Fetal Bovine Serum (Biological Industries; 040131A), sterilized by using a 0.22 μm filter (JetBiofil; FCA-206-250). The embryos were carefully dissected from the decidua and parietal yolk sac leaving the intact ectoplacental cone attached to the egg cylinder. Briefly, the decidua was isolated from the uterine tissue and the tip of the pear-shaped decidua was cut. The decidua was then opened into halves by introducing the forceps adjacent to the embryo in parallel to its long axis and subsequently opening the forceps. Afterwards the embryo was grasped from the decidua and the parietal yolk sac was peeled off the embryo using two forceps. Embryo dissection was performed on a microscope equipped with a Tokai Hit thermo plate at 37° C., within a maximum of 30 minutes to avoid affecting the embryo developmental potential. […] Developmental stage of the embryos was determined according to Downs & Davies^5. […]

mouse embryos = experiment: Ex utero culture of mouse embryos from E6.5 in supplemented EUCM, proper embryo development per stage
Method: E5.5 and E6.5 embryos ex utero culture—Cultures starting with pre-gastrulation (E5.5) and early gastrulation (E6.5) embryos were effected in static culture conditions until the early somite stage. Embryos were dissected out of the uterus and individual embryos were transferred into each well of a 8-wells glass bottom/ibiTreat μ-plates (iBidi; 80827/80826) filled with 250 μl of EUCM. To optimize culturing conditions, different media, oxygen concentrations (5% or 21%), extracellular matrices (Matrigel), supplements (N2/B27), and gas pressures (hyperbaric 2.5 or 5 psi) were tested. Media was pre-heated for an hour in an incubator with 5% CO2 at 37° C. Pre-primitive streak stage embryos (distal and anterior visceral endoderm stage) were chosen for culture in the case of E5.5, and early-primitive streak stage embryos were selected for cultures beginning at E6.5. Only embryos with no evident damage and without Reichert's membrane were cultured. Half a volume of media was replaced every 24 hours. Embryos were transferred into the rotating culture at the 4-7 somite stage (three days for cultures started at E5.5 and two days for cultures started at E6.5) or at the late gastrulation stage using the same conditions described previously for E8.5, with the difference that embryos were maintained in a constant atmosphere of 21% oxygen and 5% CO2. Transfer of the embryos at earlier or later stages results in failure of further development. Dynamic oxygen conditions yielded slightly less efficiency for expanding E6.5-E11 than using constant 21% oxygen (FIGS. 10A-B). This difference could result from oxygen diffusion in static conditions being be less efficient than in roller conditions, and that might be why higher oxygen is needed to be delivered in protocols that include static conditions. To allow further culture of the embryos until the stage (E13.5), oxygen was increased to 95% from E10.5 onwards and at E11.5 the embryos were dissected out of the yolk sac and amnion carefully avoiding rupture of any major yolk sac blood vessels, but keeping the yolk sac and umbilical cord attached to the embryo. Morphological evaluation of mouse embryo development—Assessment of appropriate embryo development was performed based on previously established morphological features [Van Maele-Fabry, G., et al. Toxicol. Vitr. 4, 149-156 (1990); Van Maele-Fabry, G., et al. Int. J. Dev. Biol. 36, 161-167 (1992)]. Only embryos presenting all of the following features were considered as properly developed. Proper development at the morphological level from E5.5/E6.5 to E8.5 was assessed as follows: At E6.5, the embryos are constituted by three cell lineages: the cup-shaped pluripotent epiblast (Epi) and two extra-embryonic lineages, the extraembryonic ectoderm (ExE) and the visceral endoderm (VE). The cavities in the embryonic and extraembryonic compartments are unified to form the pro-amniotic cavity, radial symmetry is broken in the epiblast to initiate specification of the primitive streak. After 1 or 2 days of culture ex utero (depending on the time of culture initiation, E5.5 or E6.5), the embryos reach the neural plate stage equivalent to E7.5, with no allantoic bud or early bud. The amniotic folds fuse to form the amnion, and the chorion develops from the ExE and the extraembryonic mesoderm. These events generate three cavities in the embryo: amniotic, exocoelomic and ectoplacental cavities. A small allantois bud is present in some of the embryos, at the base of the primitive streak, and the anterior ectoderm begins to form the future neural groove. On the following day, cultured embryos present between 4 to 8 pairs of somites with the embryo curved dorsally, the yolk sac and yolk sac blood circulation has been established, the allantois started to fuse with the chorion, head folds are well-formed as well as the invaginating foregut and beating heart. […]

Row | SMILES | teratogenic effect on neural tube closure [1] | effect on forebrain growth and forebrain defects (mouse embryos; 1 mM sodium pyruvate added to EUCM) | proper embryo development at E7.5 (mouse embryos; EUCM with additional 4 mg/ml glucose and 1 mM sodium pyruvate since E6.5, stage E7.5) | proper embryo development at E8.5 (embryos/total) (mouse embryos; EUCM with additional 4 mg/ml glucose and 1 mM sodium pyruvate since E6.5, stage E8.5) | proper embryo development at E9.5 (mouse embryos; EUCM with additional 4 mg/ml glucose and 1 mM sodium pyruvate since E6.5, stage E9.5) | proper embryo development at E10.5 (mouse embryos; EUCM with additional 4 mg/ml glucose and 1 mM sodium pyruvate since E6.5, stage E10.5) | proper embryo development at E11.5 (mouse embryos; EUCM with additional 4 mg/ml glucose and 1 mM sodium pyruvate since E6.5, stage E11.5) | proper embryo development at E12.5 (mouse embryos; EUCM with additional 4 mg/ml glucose and 1 mM sodium pyruvate since E6.5, stage E12.5) | effect on culture efficiency (mouse embryos; additional 4 mg/ml glucose and 1 mM sodium pyruvate in EUCM since E6.5)
1 | CCCC(CCC)C(=O)O [valproic acid] | neural tube closure defects; also recorded: teratogenic effects of valproic acid on neural tube closure could be recapitulated | – | – | – | – | – | – | – | –
2 | CC(=O)C(=O)[O-].[Na+] [sodium pyruvate] | – | promotes forebrain growth and eliminates forebrain defects | 8/8 - 100% | 7/7 (1 attached) | 6/7 - 85.7% | 6/7 - 85.7% | 4/7 - 57% | 4/7 - 57% | helps to improve culture efficiency
